Bounds are passed on as bounds.

In the case of `O=C(O)c1cccc(NC(=O)c2sc3c([N+](=O)[O-])c(O)c(O)cc3c2Cl)c1`, the melting point was in the range of 293 to 294 °C. The compound `CN(C)Cc1ccc(CSCCN=CNS(=O)(=O)c2ccccc2)o1` had a melting point of 83 to 85 °C. The same measure for `Cc1ccccc1-c1nc(-c2ccccc2C)nc(-c2ccccc2C)n1`: 110 °C; for `CCOC(=O)c1ccc(NCc2ccc(OC)cc2)cc1`: 128 to 130 °C; for `O=S(=O)(c1ccc2ccccc2c1)N1C[C@H](O)C[C@H]1COCc1ccccc1`: 124 to 126 °C. The same measure for `CC1(C)CCC(C)(C)c2cc3c(cc21)CCc1nc(-c2ccc(C(=O)O)cc2)sc1-3`: 275 to 278 °C. Under `Cc1c(NC(=O)CC(C)(C)C)c(C)c2c(c1-c1ccsc1)OCC2c1ccc(C(C)C)cc1` (centres undefined) stands 172 to 174 °C; under `NC(=O)c1ccc(-c2nccc3[nH]c(=O)ccc23)cc1`, over 300 °C. Turning to `CSC(c1ccc(Cl)cc1)C(C(=O)C(C)(C)C)n1cncn1` (centres undefined), the melting point came to 145 °C. Under `O=C1C(=O)N(C(c2ccccc2)c2ccccc2)c2cc(F)ccc21` stands 167 to 169 °C. The same measure for `COc1ccc2cc(C(C)=O)cc(F)c2c1`: 96 to 97 °C; for `CCOC(=O)/C=C/c1ccc(OCc2nc(C)c(C)nc2C)c(OC)c1`: 112 °C; for `CCOC(=O)c1nc(-c2ccc(OC)c(OC)c2)cs1`: 100 to 102 °C. The same measure for `CCc1nnc(-c2ccc(C)c(-c3ccc(F)cc3)n2)nc1CC`: 108 °C; for `CCC(OC(C)=O)c1ccc(Cl)c2nc3n(c12)CCCN3c1ccc(OC)nc1C` (centres undefined): 157 to 159 °C. `CCOC(=O)[C@H](Cc1cc(OC)c(OC)cc1I)NC=O` had a melting point of 151 to 152 °C. `CSC1=Nc2ccccc2C2=NCC(CBr)N12` (centres undefined) gave a melting point of 162 to 163 °C. The compound `O=c1cc(-c2cc(OCc3ccccc3)cc(OCc3ccccc3)c2)oc2cc(OCC3CO3)ccc12` (centres undefined) came in with a melting point of 172 to 173 °C. The same measure for `CC(C)(C)c1cc(N(C(=O)CCC(=O)O)c2ccc(OC(=O)c3ccccc3)cc2)cc(C(C)(C)C)c1O`: 131 to 132 °C. The same measure for `O=C(O)/C=C/C=C(c1cccc([N+](=O)[O-])c1)c1cccc([N+](=O)[O-])c1`: 234 to 237 °C. The same measure for `CCOC(=O)c1cnc(N)s1`: 155 to 158 °C; for `COc1ccc(C(=O)NCc2ccc(NC3=NCCN3)cc2)cc1`: 160 to 161 °C. `CCCN(CCC(N)=O)CCC(N)=O` had a melting point of 101 to 102 °C. `NC(=O)c1cccc2nc3n(c12)CCCN3c1ccc(Cl)cc1Cl` yielded a melting point of 198 to 200 °C. Compound `O=C(O)C(=O)c1ccc(C(F)(F)F)cc1` showed a melting point of 63 to 65 °C. The same measure for `CC(=O)NC(C)c1c[nH]c(C)n1` (centres undefined): 125 to 128 °C; for `CC(=O)NC1(CCc2ccccc2)CCOC(=O)CC1` (centres undefined): 165 to 167 °C; for `Oc1ccc(Oc2cnc3cc(F)ccc3n2)cc1`: 78 to 79 °C. With `CCn1c2ccc(C)cc2c2c3ccccc3ccc21`, the melting point was 69 to 74 °C. Under `O=C(O)CN1C(=O)C(=CC=Cc2cccc(-c3ccccc3)c2)SC1=S` stands 232 to 237 °C.

Regarding `Cc1cc(Cl)cc(COc2cccc(OCc3ccc4cc(F)ccc4n3)c2)c1OCC(=O)O`, the melting point was 140 to 141 °C. `Cc1c(Br)c2c(c(C)c1NC(=O)OC(C)(C)C)C(=O)C(C)(C)O2` gave a melting point of 131 to 132 °C. Turning to `OC(CN1CCNC1=S)c1cccc(Cl)c1` (centres undefined), the melting point was 128 °C. The same measure for `Cc1cc([N+](=O)[O-])ccc1OC1CCN(C(=O)OC(C)(C)C)CC1`: 82 to 83 °C. Under `N#Cc1ccc(N2CCC(CO)CC2)c2ccccc12` stands 135 to 136 °C; under `Fc1cc2c(c(-c3c(Cl)cccc3Cl)c1)OC(CNCC1CC1)C2` (centres undefined), 130 to 133 °C. Under `CSc1cccc(SC)c1S(N)(=O)=O` stands 197 to 199 °C; under `COc1ccccc1-c1ccc2ccc(NC(=O)c3cccc(Br)c3)nc2n1`, 110 °C. For the compound `COc1cc(C=Cc2ccccc2)cc(OC)c1`, the melting point stood at 56.4 °C. Under `CCN(CC)CCCCNc1ncc2c(n1)N(C1CCCC1)C(=O)N(c1c(F)c(OC)cc(OC)c1F)C2` stands 132 to 133 °C; under `CNC(=O)c1ccccc1Nc1nc(Nc2ccc3c(c2)OCCN(C)C3=O)ncc1Cl`, 288 to 289 °C; under `CSc1nc(Cl)c(C#N)c(Cl)n1`, 107 °C. Compound `CC(C)(C)c1cc(OCCCCc2nnn[nH]2)cc(C(C)(C)C)c1` had a melting point of 140 to 141 °C. The same measure for `O=C(O)c1cnc(-c2ccccc2OCC2CC2)[nH]c1=O`: 219 to 220 °C; for `Cc1cccc(NC#N)c1N1CCOCC1`: 137 to 138 °C; for `CCOC(=O)c1cnc2c(SSc3ccccc3[N+](=O)[O-])cccn2c1=O`: 191 to 193 °C. Under `COCc1ncc(-n2nc(C)cc2C)nc1Nc1ccc(Cl)cc1` stands 105 to 108 °C. Under `CS(=O)(=O)c1ccc(C(CC2CCCC2)C(=O)Nc2ncc(C(N)=O)s2)cc1` (centres undefined) stands 155 to 160 °C; under `COC(=O)c1cn(CC(F)(F)F)c2c(C)cc(F)cc2c1=O`, 168 to 171 °C; under `CCOC(=O)C(CC)C(O)(c1ccccc1)c1ccc(O)cc1` (centres undefined), 46 to 53 °C. `CC(C)CCc1ccc(C=CC(O)=S)cc1` yielded a melting point of 132 to 133 °C.

`CN(C)CCCNC(=S)Nc1ccccc1` gave a melting point of 112 to 114 °C. The compound `O=S1(=O)c2cccc3cccc(c23)N1CC(Br)CN1CCN(c2ccc(F)cc2)CC1` (centres undefined) had a melting point of 102 °C.

For `CC(C)C(NC(=O)NCc1ccccn1)C(=O)NC(Cc1ccccc1)C(O)C(Cc1ccccc1)NC(=O)C(NC(=O)NCc1ccccn1)C(C)C` (centres undefined), the melting point was 198 to 199 °C. The same measure for `CN1C(=O)[C@H](NC(=O)CCc2ccc(Cl)cc2)N=C(c2ccccc2)c2ccccc21`: 203 to 205 °C; for `COc1ccc(-c2c(NC(=O)Nc3ccc(F)cc3F)cnc3ccc(Cl)cc23)c(OC)c1OC`: 120 to 122 °C. The same measure for `O=C1SC(Cc2ccc(OCCON=Cc3ccc(-c4ccccc4)cc3)cc2)C(=O)N1C(c1ccccc1)(c1ccccc1)c1ccccc1` (centres undefined): 157 to 159 °C; for `CSc1ccc2ncccc2c1N`: 88.5 to 90.5 °C. For the compound `CCc1cc(NCc2ccc(-c3ccccc3-c3nnn[nH]3)cc2)n2nccc2n1`, the melting point fell in the range of 177 to 179 °C.

Regarding `Nc1cc(-n2cc(C(=O)O)c(=O)c3cc(F)c(Cl)nc32)c(F)cc1F`, the melting point is over 270 °C.

In turn, `COc1cccc(-c2cccc3c2CCn2cc(-c4ccccc4)nc2C3OC2CCN(C)CC2)c1` (centres undefined) gave a melting point of 93 °C. For `CCOC(=O)c1cnn(-c2nc(-c3cccc(C(F)(F)F)c3)cs2)c1C`, the melting point worked out at 138 °C. Under `CC(=O)N1CCc2c(sc(C)c2C(=O)CN2CCC(c3noc4cc(F)ccc34)CC2)C1` stands 92 to 94 °C; under `Cc1c(-c2ccnc(Nc3ccc(C(=O)N4CCOCC4)cc3)n2)cccc1[N+](=O)[O-]`, 187 to 188 °C. Under `CCCN(CCC)C(=O)c1cc(C(=O)N[C@@H](Cc2cc(F)cc(F)c2)[C@H](O)CNCc2cc(CN(C)C)ccn2)cc(-c2ncco2)c1` stands 65 to 68 °C; under `COc1ccc(CNc2c(Cl)cnn(-c3ccccc3)c2=O)cc1`, 125 to 126 °C; under `OC1(c2ccc(F)cc2)CCC2CNCCC2C1` (centres undefined), 174 to 175 °C.

The compound `O=[N+]([O-])c1c(Nc2ccon2)cnc2c1COCC2` registered a melting point of 143 to 145 °C. The same measure for `C#CCOc1nc(-n2nc3ccc(Cl)cn3c2=O)c(F)cc1C#N`: 207 to 209 °C.

As to `COCC(C)Oc1cc(Oc2ccc(S(C)(=O)=O)cc2)cc2cc(C3=NCC(CC(C)(C)O)S3)[nH]c12` (centres undefined), the melting point fell in the range of 112 to 113 °C. Under `O=C(NCC(F)(F)F)c1nn(-c2ccc(F)cc2F)c2c1C1CCC2C1` (centres undefined) stands 149 to 152 °C; under `Cc1cccc(C(C)(C)C)c1NC(=O)NC1(c2cccs2)CCCCC1`, 245 to 246 °C; under `O=c1oc(-c2ccc(OCc3cccnc3)cc2)cc(O)c1SCCc1ccccc1`, 178 to 179 °C.

For `CC(C)(CC(=O)O)CC(=O)N[C@H](Cc1ccc(-c2ccccc2)cc1)C(=O)NCCCCNc1ncccn1`, the melting point was 77 to 95 °C. On to `OCc1cc2ccc3c4ccccc4ccc3c2s1`, for which the melting point fell in the range of 169 to 170 °C. `COc1ccc(C(=O)CSc2ccccc2)cc1` came in with a melting point of 83 to 85 °C.

Turning to `CNC(=O)N(OC)c1ccc(Oc2ccc3sncc3c2)cc1`, the melting point was determined as 108 °C. Under `COCOc1ccc(-c2ccc(C=C3SC(=O)NC3=O)cc2)cc1C12CC3CC(CC(C3)C1)C2` stands 253 to 254 °C; under `Nc1nc2c(ncn2CCC(COC=O)COC=O)c(=O)[nH]1`, 195 to 198 °C.

As to `O=C(NCC(=O)N1CCC(=C2c3ccccc3C=Cc3ccccc32)CC1)OCc1ccccc1`, the melting point was in the range of 142 to 144 °C. The same measure for `COc1cc(C(CC(=O)O)N2Cc3ccccc3C2=O)cc(OC)c1OC` (centres undefined): 162 to 164 °C; for `CC(=O)c1c(C)nn2ccccc12`: 85.2 to 88.1 °C; for `Cc1cc(C)c2c3c([nH]c2c1)C(=O)N=NC3=O`: over 250 °C. The same measure for `Cc1c[nH]c2c1C(=O)CC(c1ccccc1F)C2` (centres undefined): 198 to 200 °C. Under `Cc1ccc(S(=O)(=O)N[C@H](CO)CCO)cc1` stands 90 to 92 °C; under `CCOC(=O)c1noc([C@@H](Cc2ccc3ccccc3c2)N(C)C(=O)OC(C)(C)C)n1`, 99 to 102 °C.

`C(=Cc1ccc(OCCCCc2nnn[nH]2)cc1)c1ccncc1` registered a melting point of 158 to 159 °C. The same measure for `CCOC(=O)c1cnn(-c2cccc(Cl)c2)c1C(N)=O`: 132 °C. Under `CCCC[C@H](NC(=O)[C@H](CCCC)NC(=O)OCc1ccccc1)C(=O)CSCc1ccco1` stands 95 to 97 °C.
